Holding throughout (test): KINOMEscan (ScanMAX) kinase profiling
Holding throughout (format): binding

In assay [1] the target is T1, panel of 468 kinases (Homo sapiens, UniProt Q9HCP0).
T1 construct: purchased KINOMEscan (ScanMAX) service
The following applies: CSNK1G1; 1 μM; read-out: % control.

The target of assay [2] is T2, panel of 468 kinases (Homo sapiens, UniProt O96017).
T2 construct: purchased KINOMEscan (ScanMAX) service
The following applies: CHEK2; 1 μM; read-out: % control.

Assay [3] addresses T3, panel of 468 kinases (Homo sapiens, UniProt Q12851).
T3 construct: purchased KINOMEscan (ScanMAX) service
T3 sequence (Q12851 1-820): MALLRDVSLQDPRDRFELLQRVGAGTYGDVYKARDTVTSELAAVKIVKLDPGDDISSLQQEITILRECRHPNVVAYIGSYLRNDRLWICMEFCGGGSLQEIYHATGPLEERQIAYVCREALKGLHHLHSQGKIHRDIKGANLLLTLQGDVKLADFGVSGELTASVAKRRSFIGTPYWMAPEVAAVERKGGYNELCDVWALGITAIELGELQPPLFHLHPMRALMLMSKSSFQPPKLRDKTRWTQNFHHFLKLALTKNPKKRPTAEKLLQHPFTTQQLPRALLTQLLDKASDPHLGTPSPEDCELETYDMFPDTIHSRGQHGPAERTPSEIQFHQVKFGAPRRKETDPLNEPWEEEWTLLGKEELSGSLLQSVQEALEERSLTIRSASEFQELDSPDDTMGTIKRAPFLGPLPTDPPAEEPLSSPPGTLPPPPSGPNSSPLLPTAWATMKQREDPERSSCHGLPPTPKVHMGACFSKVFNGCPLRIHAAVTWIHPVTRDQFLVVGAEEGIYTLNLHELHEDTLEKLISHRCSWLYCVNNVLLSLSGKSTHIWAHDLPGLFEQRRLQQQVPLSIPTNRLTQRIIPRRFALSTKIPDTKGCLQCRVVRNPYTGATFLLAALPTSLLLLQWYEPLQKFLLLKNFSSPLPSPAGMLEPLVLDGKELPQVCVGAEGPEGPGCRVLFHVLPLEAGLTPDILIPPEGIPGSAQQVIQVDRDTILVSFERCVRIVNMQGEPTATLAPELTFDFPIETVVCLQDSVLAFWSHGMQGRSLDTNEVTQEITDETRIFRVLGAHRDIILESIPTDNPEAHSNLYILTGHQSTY
The following applies: MAP4K2; 1 μM; read-out: % control.

In assay [4] the target is T4, panel of 468 kinases (Homo sapiens, UniProt P06239).
T4 construct: purchased KINOMEscan (ScanMAX) service
T4 sequence (P06239 whole entry): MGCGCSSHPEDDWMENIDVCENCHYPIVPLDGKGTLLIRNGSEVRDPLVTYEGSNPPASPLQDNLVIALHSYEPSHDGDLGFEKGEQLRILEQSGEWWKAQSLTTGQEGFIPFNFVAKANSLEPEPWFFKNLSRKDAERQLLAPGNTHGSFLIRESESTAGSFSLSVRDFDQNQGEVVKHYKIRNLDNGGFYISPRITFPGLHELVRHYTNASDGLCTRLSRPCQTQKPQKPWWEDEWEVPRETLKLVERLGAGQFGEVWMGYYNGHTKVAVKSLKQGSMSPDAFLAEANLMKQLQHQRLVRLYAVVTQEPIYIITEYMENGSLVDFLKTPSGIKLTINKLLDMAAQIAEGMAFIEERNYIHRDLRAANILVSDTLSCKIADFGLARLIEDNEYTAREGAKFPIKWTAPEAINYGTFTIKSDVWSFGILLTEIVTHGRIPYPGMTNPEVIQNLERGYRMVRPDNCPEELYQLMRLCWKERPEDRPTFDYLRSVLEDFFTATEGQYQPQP
The conditions noted are these: LCK; 1 μM; read-out: % control.

Assay [5] addresses T5, panel of 468 kinases (Homo sapiens, UniProt P53778).
T5 construct: purchased KINOMEscan (ScanMAX) service
T5 sequence (P53778 1-367): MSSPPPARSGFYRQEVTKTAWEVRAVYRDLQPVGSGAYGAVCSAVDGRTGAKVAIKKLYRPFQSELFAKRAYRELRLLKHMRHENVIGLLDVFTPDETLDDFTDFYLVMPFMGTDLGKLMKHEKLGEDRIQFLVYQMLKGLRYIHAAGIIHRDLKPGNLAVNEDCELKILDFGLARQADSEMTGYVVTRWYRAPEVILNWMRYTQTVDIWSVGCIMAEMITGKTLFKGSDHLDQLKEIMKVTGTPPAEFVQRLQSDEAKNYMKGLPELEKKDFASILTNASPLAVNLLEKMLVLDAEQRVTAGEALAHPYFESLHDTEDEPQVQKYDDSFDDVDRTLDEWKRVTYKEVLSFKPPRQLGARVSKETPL
The conditions noted are these: p38-gamma; 1 μM; read-out: % control.

T1 sequence (Q9HCP0 whole entry): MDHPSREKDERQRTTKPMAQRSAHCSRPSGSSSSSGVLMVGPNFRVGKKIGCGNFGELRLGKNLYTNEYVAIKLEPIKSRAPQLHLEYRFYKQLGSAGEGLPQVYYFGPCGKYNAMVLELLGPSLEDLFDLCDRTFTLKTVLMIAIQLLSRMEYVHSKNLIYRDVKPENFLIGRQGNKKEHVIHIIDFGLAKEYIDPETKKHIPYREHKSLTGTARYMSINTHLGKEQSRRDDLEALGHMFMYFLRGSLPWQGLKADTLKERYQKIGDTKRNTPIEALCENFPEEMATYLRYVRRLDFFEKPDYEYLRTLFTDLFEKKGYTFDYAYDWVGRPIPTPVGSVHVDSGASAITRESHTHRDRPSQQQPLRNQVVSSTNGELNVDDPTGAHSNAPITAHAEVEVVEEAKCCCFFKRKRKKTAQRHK
T2 sequence (O96017 whole entry): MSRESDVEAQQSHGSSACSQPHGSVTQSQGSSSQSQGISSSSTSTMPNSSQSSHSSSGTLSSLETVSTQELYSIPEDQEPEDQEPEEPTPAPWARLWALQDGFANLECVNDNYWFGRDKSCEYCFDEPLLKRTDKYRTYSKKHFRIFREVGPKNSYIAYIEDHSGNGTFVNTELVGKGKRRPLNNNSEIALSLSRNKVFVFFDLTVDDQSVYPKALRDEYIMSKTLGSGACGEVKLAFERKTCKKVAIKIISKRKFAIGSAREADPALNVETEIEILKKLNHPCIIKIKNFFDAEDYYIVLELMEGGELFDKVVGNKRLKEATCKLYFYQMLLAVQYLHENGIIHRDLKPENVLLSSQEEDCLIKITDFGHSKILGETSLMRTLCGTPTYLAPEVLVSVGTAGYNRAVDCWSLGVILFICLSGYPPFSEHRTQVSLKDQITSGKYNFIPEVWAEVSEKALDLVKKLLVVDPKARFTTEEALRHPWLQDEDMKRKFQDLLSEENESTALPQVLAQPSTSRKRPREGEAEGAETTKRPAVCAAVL

Take `CNc1nc(Nc2ccc(S(=O)(=O)N3CCC(N4CCOCC4)CC3)cc2OC)nc2[nH]cc(Cl)c12` [Compound 12, 5-chloro-N2-(2-methoxy-4-((4-morpholinopiperidin-1-yl)sulfonyl)phenyl)-N4-methyl-7H-pyrrolo[2,3-d]pyrimidine-2,4-diamine]: the remaining binding at 1 µM in assay [1] worked out at 100%; in assay [2], 1.8%; in assay [3], 61%; in assay [4], 91%; in assay [5] it was 100%.
`CNc1nc(Nc2ccc(C(=O)N3CCC(N4CCOCC4)CC3)c3c2OCO3)nc2[nH]cc(Cl)c12` [Compound 75, (7-((5-chloro-4-(methylamino)-7H-pyrrolo[2,3-d]pyrimidin-2-yl)amino)benzo[d][1,3]dioxol-4-yl)(4-morpholinopiperidin-1-yl)methanone]: the remaining binding at 1 µM in assay [1] turned out to be 28%; in assay [2] it was 0.95%; in assay [3], 6.2%; in assay [4], 100%; in assay [5] it was 91%.
Consider `CNc1nc(Nc2ccc(P3(=O)CCN(C4CCOCC4)CC3)cc2OC)nc2[nH]cc(Cl)c12` [Compound 77, 4-(4-((5-chloro-4-(methylamino)-7H-pyrrolo[2,3-d]pyrimidin-2-yl)amino)-3-methoxyphenyl)-1-(tetrahydro-2H-pyran-4-yl)-1,4-azaphosphinane 4-oxide], for which the remaining binding at 1 µM in assay [1] was 100%; in assay [2], 0.7%; in assay [3], 39%; in assay [4] it was 100%; in assay [5], 98%.

Source of the values: patent US12479847B2 (DANA-FARBER CANCER INSTITUTE, INC., priority 2019, dated 2025).
